Test results: publication PMC6895203, “Conformational pathway provides unique sensitivity to a synaptic mGluR” (Nature Communications, 2019)
“And” between values parts separate entries of the source, which are not always exact repeats. Equal values may be shown once.

Tests used:
SNAP-mGluR4/4 homodimer = biological target: T1, SNAP-mGluR4/4 homodimer (Rattus norvegicus, UniProt P31423); assay: Live-cell ensemble FRET of SNAP-mGluR4/4 homodimer in HEK293 cells; assay type: cell-based
T1 construct: HA (N); expressed in transfected cells; host or cells: HEK293 / HEK293T
Method: (§1) After labeling, cells were mounted on an upright, scanning confocal microscope (Zeiss LSM 780) and imaged with a 20X objective. […] Clusters of cells were analyzed together and FRET was calculated as FRET = (IA)/(ID + IA), in which ID is the fluorescence donor intensity and IA is the fluorescence acceptor intensity. […] Fitting of dose–response curves was performed using Prism (Graphpad). […] Drugs were delivered with a gravity-driven perfusion system.

[1] = biological target: T2, SNAP-mGluR7(N74K) homodimer (Rattus norvegicus, UniProt P35400, N74K); assay: smFRET on SNAP-mGluR7(N74K) homodimers; assay type: biochemical; details: 10 mM glutamate; wild-type at >10X higher glutamate
T2 construct: HA (N); made in house; host or cells: HEK293T
Text: (§2) (100 ms time resolution).

[2] = biological target: T3, CLIP-mGluR3/SNAP-mGluR7 heterodimer (mGluR3/7) (Rattus norvegicus, UniProt P31422+P35400); assay: smFRET on CLIP-mGluR3/SNAP-mGluR7 heterodimers; assay type: biochemical; details: for smFRET histogram value: 10uM Glu
T3 construct: Flag (N); HA (N); made in house; host or cells: HEK293T
Method: Samples were prepared in the same manner as for mGluR2/7 heterodimers and imaged in smFRET.
as §2

mGluR7(K319C) = biological target: T4, mGluR7(K319C) (Rattus norvegicus, UniProt P35400, K319C); assay type: cell-based; details: vs wild-type mGluR7
T4 construct: expressed in transfected cells; host or cells: HEK293 / HEK293T
Text: Illumination was applied to the entire field of view using either a Polychrome V monochromator (TILL Photonics) through a 20× objective, or a Lambda DG4 high-speed wavelength switcher (Sutter Instruments) with 380 nm and 500 nm filters through a 40× objective. pClamp software was used for both data acquisition and control of illumination.

mGluR5/mGluR5(YADA) = details: cited from earlier work
[3] = biological target: SNAP-mGluR7/SNAP-mGluR7 homodimer (mGluR7/7) (Rattus norvegicus, UniProt P35400); assay: Live-cell ensemble FRET of SNAP-mGluR7/7 homodimer in HEK293T cells; assay type: cell-based; design: HA (N); made in house; host or cells: HEK293T
Method: as §1

[4] = biological target: T5, CLIP-mGluR2/SNAP-mGluR7 heterodimer (mGluR2/7) (Rattus norvegicus, UniProt P31421+P35400); assay: Live-cell ensemble FRET of mGluR2/7 heterodimer in HEK293 cells; assay type: cell-based; design: Flag (N); HA (N); made in house; host or cells: HEK293T; details: for normalized FRET response (Figure 3c titration), AVG: right block
Method: The co-expression of SNAP-mGluR7 and CLIP-mGluR2 is expected to yield three dimer stoichiometries: the homodimeric SNAP-mGluR7/SNAP-mGluR7; the homodimeric CLIP-mGluR2/CLIP-mGluR2, and the heterodimeric SNAP-mGluR7/CLIP-mGluR2. Of these, only the heterodimer combines the donor and acceptor and produces a FRET signal.
as §1

[5] = biological target: T5, CLIP-mGluR2/SNAP-mGluR7 heterodimer (mGluR2/7); assay: smFRET on isolated CLIP-mGluR2/SNAP-mGluR7 heterodimers

Sequence of SNAP-mGluR7/SNAP-mGluR7 homodimer (mGluR7/7) (P35400 35-915): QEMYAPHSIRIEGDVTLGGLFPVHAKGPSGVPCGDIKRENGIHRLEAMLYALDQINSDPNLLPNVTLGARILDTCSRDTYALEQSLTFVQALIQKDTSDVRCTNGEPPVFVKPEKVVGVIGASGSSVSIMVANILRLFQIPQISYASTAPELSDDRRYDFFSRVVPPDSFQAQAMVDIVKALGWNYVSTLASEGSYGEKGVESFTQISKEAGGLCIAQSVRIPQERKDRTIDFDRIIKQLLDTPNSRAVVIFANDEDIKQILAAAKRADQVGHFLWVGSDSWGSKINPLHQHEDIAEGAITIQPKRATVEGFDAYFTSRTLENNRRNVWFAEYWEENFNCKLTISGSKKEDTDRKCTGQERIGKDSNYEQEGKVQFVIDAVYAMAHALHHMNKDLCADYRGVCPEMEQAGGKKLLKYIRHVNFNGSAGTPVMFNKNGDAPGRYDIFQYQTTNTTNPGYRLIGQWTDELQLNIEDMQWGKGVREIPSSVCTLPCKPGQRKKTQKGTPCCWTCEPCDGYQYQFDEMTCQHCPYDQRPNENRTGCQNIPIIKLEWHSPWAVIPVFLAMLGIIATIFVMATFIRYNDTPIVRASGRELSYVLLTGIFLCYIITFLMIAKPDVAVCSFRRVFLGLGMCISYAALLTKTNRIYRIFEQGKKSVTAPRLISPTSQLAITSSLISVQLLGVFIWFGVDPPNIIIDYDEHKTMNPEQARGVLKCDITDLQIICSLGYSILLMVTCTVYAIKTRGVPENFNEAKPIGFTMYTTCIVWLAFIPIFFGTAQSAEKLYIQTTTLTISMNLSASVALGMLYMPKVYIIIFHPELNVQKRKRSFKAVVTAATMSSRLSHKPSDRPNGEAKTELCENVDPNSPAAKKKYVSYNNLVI
T3 sequence (P31422 23-879): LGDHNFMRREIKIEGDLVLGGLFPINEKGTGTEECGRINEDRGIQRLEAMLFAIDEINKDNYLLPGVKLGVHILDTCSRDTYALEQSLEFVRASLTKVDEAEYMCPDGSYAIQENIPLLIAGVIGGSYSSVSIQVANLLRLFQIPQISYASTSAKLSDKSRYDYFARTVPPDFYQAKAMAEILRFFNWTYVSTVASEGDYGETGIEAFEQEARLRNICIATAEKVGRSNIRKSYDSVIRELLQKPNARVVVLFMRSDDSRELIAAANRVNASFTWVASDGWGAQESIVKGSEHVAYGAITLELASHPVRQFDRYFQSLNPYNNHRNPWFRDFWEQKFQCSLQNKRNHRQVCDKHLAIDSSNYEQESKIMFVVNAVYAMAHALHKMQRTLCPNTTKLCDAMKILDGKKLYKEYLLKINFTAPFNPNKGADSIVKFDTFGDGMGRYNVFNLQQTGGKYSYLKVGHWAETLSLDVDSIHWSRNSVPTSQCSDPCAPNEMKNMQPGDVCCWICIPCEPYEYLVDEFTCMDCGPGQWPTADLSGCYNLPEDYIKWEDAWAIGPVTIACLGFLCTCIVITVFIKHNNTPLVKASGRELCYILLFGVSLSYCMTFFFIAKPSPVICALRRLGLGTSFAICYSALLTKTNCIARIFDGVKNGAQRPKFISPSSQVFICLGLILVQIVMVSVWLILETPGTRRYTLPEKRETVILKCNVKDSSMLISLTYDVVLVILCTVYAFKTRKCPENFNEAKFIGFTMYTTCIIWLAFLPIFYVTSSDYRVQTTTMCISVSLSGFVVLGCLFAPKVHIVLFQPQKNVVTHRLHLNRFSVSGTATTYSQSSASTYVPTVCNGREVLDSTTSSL
T3 sequence (P35400 35-915): as the sequence (P35400 35-915) above
T1 sequence (P31423 33-912): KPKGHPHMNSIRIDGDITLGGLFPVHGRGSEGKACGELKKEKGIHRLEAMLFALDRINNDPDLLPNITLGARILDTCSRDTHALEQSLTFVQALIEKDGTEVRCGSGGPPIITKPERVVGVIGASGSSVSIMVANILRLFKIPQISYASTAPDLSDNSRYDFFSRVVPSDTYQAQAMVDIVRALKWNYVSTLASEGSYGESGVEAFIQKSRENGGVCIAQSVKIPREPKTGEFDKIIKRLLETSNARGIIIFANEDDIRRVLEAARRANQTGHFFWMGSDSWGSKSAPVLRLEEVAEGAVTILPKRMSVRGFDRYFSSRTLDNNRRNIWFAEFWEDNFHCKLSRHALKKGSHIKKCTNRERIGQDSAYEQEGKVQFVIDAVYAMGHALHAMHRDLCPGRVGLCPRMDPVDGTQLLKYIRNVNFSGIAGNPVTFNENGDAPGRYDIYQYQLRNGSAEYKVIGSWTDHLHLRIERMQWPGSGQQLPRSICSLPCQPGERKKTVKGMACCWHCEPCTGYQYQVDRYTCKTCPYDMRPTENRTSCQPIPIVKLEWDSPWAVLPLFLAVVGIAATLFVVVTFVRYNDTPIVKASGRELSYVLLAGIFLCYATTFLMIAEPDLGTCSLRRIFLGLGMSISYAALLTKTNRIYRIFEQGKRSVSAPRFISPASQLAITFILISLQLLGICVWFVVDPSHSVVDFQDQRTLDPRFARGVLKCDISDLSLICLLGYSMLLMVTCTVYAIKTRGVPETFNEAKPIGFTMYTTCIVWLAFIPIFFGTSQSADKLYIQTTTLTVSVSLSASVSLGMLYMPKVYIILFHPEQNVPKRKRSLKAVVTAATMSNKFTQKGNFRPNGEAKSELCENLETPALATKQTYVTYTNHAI
T5 sequence (P31421 19-872): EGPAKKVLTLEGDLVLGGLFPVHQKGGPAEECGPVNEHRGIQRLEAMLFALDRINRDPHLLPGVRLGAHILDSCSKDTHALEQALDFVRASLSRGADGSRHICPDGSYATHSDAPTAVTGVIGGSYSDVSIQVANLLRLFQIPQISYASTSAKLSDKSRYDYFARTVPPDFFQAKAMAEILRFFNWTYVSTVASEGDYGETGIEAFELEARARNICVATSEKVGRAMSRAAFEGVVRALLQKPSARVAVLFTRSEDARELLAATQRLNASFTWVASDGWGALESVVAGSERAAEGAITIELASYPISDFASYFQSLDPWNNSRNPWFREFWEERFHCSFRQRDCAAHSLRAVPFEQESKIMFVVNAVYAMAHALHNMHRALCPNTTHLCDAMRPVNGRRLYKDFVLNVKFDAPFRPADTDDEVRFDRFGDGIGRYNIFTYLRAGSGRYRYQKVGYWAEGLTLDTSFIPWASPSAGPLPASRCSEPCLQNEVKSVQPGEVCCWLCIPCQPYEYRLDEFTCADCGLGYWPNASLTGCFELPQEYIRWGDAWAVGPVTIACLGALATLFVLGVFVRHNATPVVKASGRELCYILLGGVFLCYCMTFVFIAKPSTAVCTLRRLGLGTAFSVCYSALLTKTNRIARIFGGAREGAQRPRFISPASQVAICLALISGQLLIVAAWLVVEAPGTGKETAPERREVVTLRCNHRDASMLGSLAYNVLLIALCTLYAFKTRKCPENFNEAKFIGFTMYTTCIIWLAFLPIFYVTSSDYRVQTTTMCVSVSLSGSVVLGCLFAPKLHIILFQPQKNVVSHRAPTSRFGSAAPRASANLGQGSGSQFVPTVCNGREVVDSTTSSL
T5 sequence (P35400 35-915): as the sequence (P35400 35-915) above
T4 sequence (P35400 35-915 K319C): as the sequence (P35400 35-915) above, with K285C counted along it
T2 sequence (P35400 35-915 N74K): as the sequence (P35400 35-915) above, with N40K counted along it

SMILES: N[C@@H](CCC(=O)O)C(=O)O [glutamate]
- titration values, single replicates 1-3 (SNAP-mGluR4/4 homodimer; Glu 1e-8, individual replicates): 0
- titration values, AVG (normalized response) (SNAP-mGluR4/4 homodimer; Glu 1e-7): 0.0203
- titration values, single replicates 1-3 (SNAP-mGluR4/4 homodimer; Glu 1e-7, individual replicates, listed as Glu): 0.03656 and 0.01694 and 0.007398
- titration values, AVG (normalized response) (SNAP-mGluR4/4 homodimer; Glu 1e-6): 0.0444
- titration values, single replicates 1-3 (SNAP-mGluR4/4 homodimer; Glu 1e-6, individual replicates, listed as Glu): 0.05482 and 0.03845 and 0.03991
- titration values, AVG (normalized response) (SNAP-mGluR4/4 homodimer; Glu 1e-5): 0.4393
- titration values, single replicates 1-3 (SNAP-mGluR4/4 homodimer; Glu 1e-5, individual replicates, listed as Glu): 0.4343 and 0.4025 and 0.481
- titration values, AVG (normalized response) (SNAP-mGluR4/4 homodimer; Glu 0.0001): 0.8959
- titration values, single replicates 1-3 (SNAP-mGluR4/4 homodimer; Glu 0.0001, individual replicates, listed as Glu): 0.9016 and 0.8805 and 0.9055
- titration values, AVG (normalized response) (SNAP-mGluR4/4 homodimer; Glu 0.001 (normalisation point)): 1
- titration values, single replicates 1-3 (SNAP-mGluR4/4 homodimer; Glu 0.001 (normalisation point), individual replicates): 1
- occupancy of activated low FRET state vs wild-type mGluR7 [1]: greater occupancy of the activated low FRET (~0.2) state
- smFRET histogram value ([2]; FRET bin 0): 5.12E-04
- smFRET histogram value ([2]; FRET bin 0.02): 0.00118
- smFRET histogram value ([2]; FRET bin 0.04): 0.00527
- smFRET histogram value ([2]; FRET bin 0.06): 0.01241
- smFRET histogram value ([2]; FRET bin 0.08): 0.03308
- smFRET histogram value ([2]; FRET bin 0.1): 0.05942
- smFRET histogram value ([2]; FRET bin 0.12): 0.08729
- smFRET histogram value ([2]; FRET bin 0.14): 0.111
- smFRET histogram value ([2]; FRET bin 0.16): 0.1262
- smFRET histogram value ([2]; FRET bin 0.18): 0.1233
- smFRET histogram value ([2]; FRET bin 0.2): 0.1027
- smFRET histogram value ([2]; FRET bin 0.22): 0.08729
- smFRET histogram value ([2]; FRET bin 0.24): 0.06369
- smFRET histogram value ([2]; FRET bin 0.26): 0.04632
- smFRET histogram value ([2]; FRET bin 0.28): 0.03089
- smFRET histogram value ([2]; FRET bin 0.3): 0.01963
- smFRET histogram value ([2]; FRET bin 0.32): 0.01469
- smFRET histogram value ([2]; FRET bin 0.34): 0.01371
- smFRET histogram value ([2]; FRET bin 0.36): 0.01107
- smFRET histogram value ([2]; FRET bin 0.38): 0.01037
- smFRET histogram value ([2]; FRET bin 0.4): 0.00851
- smFRET histogram value ([2]; FRET bin 0.42): 0.00558
- smFRET histogram value ([2]; FRET bin 0.44): 0.00425
- smFRET histogram value ([2]; FRET bin 0.46): 0.00239
- smFRET histogram value ([2]; FRET bin 0.48): 0.00285
- smFRET histogram value ([2]; FRET bin 0.5): 0.00309
- smFRET histogram value ([2]; FRET bin 0.52): 0.00461
- smFRET histogram value ([2]; FRET bin 0.54): 0.00369
- smFRET histogram value ([2]; FRET bin 0.56): 0.00265
- smFRET histogram value ([2]; FRET bin 0.58): 0.00122
- smFRET histogram value ([2]; FRET bin 0.6): 7.52E-04
- smFRET histogram value ([2]; FRET bin 0.62): 8.08E-05
- smFRET histogram value ([2]; FRET bin 0.64): 4.04E-05
- smFRET histogram value ([2]; FRET bin 0.66): 1.92E-05
- smFRET histogram value ([2]; FRET bin 0.68): 1.92E-05
- smFRET histogram value ([2]; FRET bin 0.7): 6.75E-05
- smFRET histogram value ([2]; FRET bin 0.72): 4.04E-05
- smFRET histogram value ([2]; FRET bin 0.74): 7.95E-06
- smFRET histogram value ([2]; FRET bin 0.76): 1.62E-04
- smFRET histogram value ([2]; FRET bin 0.78): 4.04E-05
- smFRET histogram value ([2]; FRET bin 0.8): 0
- smFRET histogram value ([2]; FRET bin 0.82): 0
- smFRET histogram value ([2]; FRET bin 0.84): 0
- smFRET histogram value ([2]; FRET bin 0.86): 0
- smFRET histogram value ([2]; FRET bin 0.88): 0
- smFRET histogram value ([2]; FRET bin 0.9): 0
- smFRET histogram value ([2]; FRET bin 0.92): 0
- smFRET histogram value ([2]; FRET bin 0.94): 0
- smFRET histogram value ([2]; FRET bin 0.96): 0
- smFRET histogram value ([2]; FRET bin 0.98): 0
- smFRET histogram value ([2]; FRET bin 1): 0
- active state occupancy ([2]; 10 μM glutamate): ~ 95%
- effect of K319C mutation on apparent affinity for glutamate (GIRK current) (mGluR7(K319C)): did not alter the apparent affinity
- first low glutamate concentration component, share of maximal activation (mGluR5/mGluR5(YADA)): ~ 20%
- FRET decrease ([3]; 10 mM glutamate, live HEK293T cells): barely measurable FRET decrease
- fractional change in FRET (Figure 1c), Average ([3]; 10 mM glutamate, live cells): 0.002
- glutamate concentration required for a measurable response ([3]; live-cell ensemble FRET): 10 mM
- FRET change ([3]; up to 1 mM glutamate, live HEK293T cells): no detectable FRET change
- major high affinity component, share of total ΔFRET ([4]; live-cell ensemble FRET): ~ 80%
- minor lower affinity component, share of total ΔFRET ([4]; live-cell ensemble FRET): ~ 20%
- normalized FRET response (Figure 3c titration), AVG ([4]; Glu 1uM, normalized to 10 mM): 0.05708
- normalized FRET response (Figure 3c titration), AVG ([4]; Glu 2uM): 0.1039
- normalized FRET response (Figure 3c titration), AVG ([4]; Glu 5uM): 0.2535
- normalized FRET response (Figure 3c titration), AVG ([4]; Glu 10uM): 0.4051
- normalized FRET response (Figure 3c titration), AVG ([4]; Glu 20uM): 0.6543
- normalized FRET response (Figure 3c titration), AVG ([4]; Glu 50uM): 0.6971
- normalized FRET response (Figure 3c titration), AVG ([4]; Glu 100uM): 0.7929
- normalized FRET response (Figure 3c titration), AVG ([4]; Glu 200uM): 0.7943
- normalized FRET response (Figure 3c titration), AVG ([4]; Glu 500uM): 0.8921
- normalized FRET response (Figure 3c titration), AVG ([4]; Glu 1mM): 0.9417
- normalized FRET response (Figure 3c titration), AVG ([4]; Glu 2mM): 1.009
- normalized FRET response (Figure 3c titration), AVG ([4]; Glu 10mM (normalization point)): 1
- occupancy of the low FRET active state ([5]; 10 μM glutamate): ~ 50%
- smFRET level ([5]; 10 mM glutamate): ~ 0.2
- minor low affinity component, share ([5]; smFRET): ~ 20%
- occupancy of low FRET activated conformation at top of biphasic relation ([5]; smFRET): full occupancy
- major high affinity component (single-subunit liganding), share of maximal activation ([5]; smFRET, top of first component at 1 mM glutamate): ~ 80%
